Assay results: patent US12662491B2 (Redona Therapeutics, Inc., priority 2020, dated 2026)
Like-named read-outs stand apart in the source and are kept apart here.

Target: T1, Zcchc11 enzyme (Homo sapiens, UniProt Q5TAX3)
T1 construct: made in house; host or cells: HEK293 cells (Zcchc11); E. coli Rosetta II (LIN28A)
T1 sequence (Q5TAX3 212-1420): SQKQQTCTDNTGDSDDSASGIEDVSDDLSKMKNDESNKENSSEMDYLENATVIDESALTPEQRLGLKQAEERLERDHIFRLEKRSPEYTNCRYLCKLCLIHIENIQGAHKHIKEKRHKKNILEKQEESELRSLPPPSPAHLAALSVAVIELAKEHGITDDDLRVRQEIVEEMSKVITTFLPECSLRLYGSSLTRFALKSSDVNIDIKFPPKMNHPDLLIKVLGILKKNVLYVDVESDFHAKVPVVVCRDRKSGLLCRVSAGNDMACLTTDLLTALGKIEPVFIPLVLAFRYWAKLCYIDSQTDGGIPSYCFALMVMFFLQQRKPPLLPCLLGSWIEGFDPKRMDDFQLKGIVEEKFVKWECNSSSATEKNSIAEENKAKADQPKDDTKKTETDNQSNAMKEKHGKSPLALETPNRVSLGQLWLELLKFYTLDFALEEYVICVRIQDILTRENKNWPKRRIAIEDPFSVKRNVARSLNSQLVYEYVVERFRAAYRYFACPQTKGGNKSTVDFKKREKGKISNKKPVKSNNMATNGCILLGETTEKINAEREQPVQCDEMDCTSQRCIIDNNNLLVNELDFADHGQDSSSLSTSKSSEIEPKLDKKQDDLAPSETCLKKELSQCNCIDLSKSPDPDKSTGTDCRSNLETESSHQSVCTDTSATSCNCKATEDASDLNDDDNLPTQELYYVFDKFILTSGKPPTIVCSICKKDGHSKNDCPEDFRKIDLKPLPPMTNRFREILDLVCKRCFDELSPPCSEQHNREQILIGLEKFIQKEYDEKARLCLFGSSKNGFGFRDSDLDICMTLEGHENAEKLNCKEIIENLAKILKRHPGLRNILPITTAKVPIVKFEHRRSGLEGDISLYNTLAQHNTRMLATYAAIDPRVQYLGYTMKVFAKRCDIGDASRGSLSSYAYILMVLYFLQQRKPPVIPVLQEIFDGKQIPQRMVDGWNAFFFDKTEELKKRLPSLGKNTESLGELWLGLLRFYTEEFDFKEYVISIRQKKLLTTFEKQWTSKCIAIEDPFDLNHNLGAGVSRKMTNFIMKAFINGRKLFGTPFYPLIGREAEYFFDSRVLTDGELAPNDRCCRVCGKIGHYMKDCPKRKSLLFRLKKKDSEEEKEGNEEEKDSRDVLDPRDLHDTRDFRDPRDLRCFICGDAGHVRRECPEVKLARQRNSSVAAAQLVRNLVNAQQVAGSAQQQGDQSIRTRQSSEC
Experiment: TUTase assay (Zcchc11 assay, Lin28a-dependent polyuridylation of pre-let-7)
Assay type: biochemical
Settings: read-out: Potency Lin28a-dep Z11 IC50
Outline: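 LIN28A (10 nM) in pH 7.3 HEPES/KCl/MgCl2/DTT buffer was mixed with serially diluted compound, then 0.2 nM truncated human Zcchc11 and 2 nM labeled pre-let-7 were added for 30 min at room temperature. UTP (5 uM) and quench probe (4 nM) then started the reaction. Linear early rates gave IC50 values.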

[1] = Lin28a-dependent Zcchc11 (Z11) TUTase assay
[2] = Lin28a-dependent Zcchc11 (Z11) TUTase activity

Row | SMILES | IC50 [1] [µM] | IC50 [2] [µM] | other results
1 | O=C(O)c1cn(-c2ccc(CO)nc2)c2cc(N3CCC[C@@H]3COc3ncccc3Cl)c(Cl)cc2c1=O [Example 429, (R)-6-chloro-7-(2-(((3-chloropyridin-2-yl)oxy)methyl)pyrrolidin-1-yl)-1-(6-(hydroxymethyl)pyridin-3-yl)-4-oxo-1,4-dihydroquinoline-3-carboxylic acid] | ≤ 1 | – | –
2 | CC(C)[C@@H]1COC(=O)N1C[C@H]1CCCN1c1cc2c(cc1Cl)c(=O)c(C(=O)O)cn2C1(C)CC1 [Compound 141, 6-chloro-7-((R)-2-(((R)-4-isopropyl-2-oxooxazolidin-3-yl)methyl)pyrrolidin-1-yl)-1-(1-methylcyclo-propyl)-4-oxo-1,4-dihydro-quinoline-3-carboxylic acid] | – | > 50 | –
3 | CN(C)C1CN(c2ccc(-n3cc(C(=O)O)c(=O)c4cc(Cl)c(N5CC(F)(F)C[C@@H]5COc5ncccc5Cl)cc43)cn2)C1 (racemic) [Compound 305, rac-(R)-6-chloro-7-(2-(((3-chloropyridin-2-yl)oxy)methyl)-4,4-difluoro-pyrrolidin-1-yl)-1-(6-(3-(dimethyl-amino)azetidin-1-yl)pyridin-3-yl)-4-oxo-1,4-dihydro-quinoline-3-carboxylic acid] | – | ≤ 1 | –
4 | COc1ccnc(OC[C@H]2CCCN2c2cc3c(cc2Cl)c(=O)c(C(=O)O)cn3-c2ccc(N3CC(N(C)C)C3)nc2)c1Cl [Example 75, 6-chloro-7-[(2R)-2-{[(3-chloro-4-methoxypyridin-2-yl)oxy]methyl}pyrrolidin-1-yl]-1-{6-[3-(dimethylamino)azetidin-1-yl]pyridin-3-yl}-4-oxo-1,4-dihydroquinoline-3-carboxylic acid] | – | – | IC50 (LIN28A 10 nM, Zcchc11 0.2 nM, 5′-fluorescein pre-let-7 miRNA 2 nM, UTP 5 uM, room temperature, 30 minutes pre-incubation): ≤ 1 µM
5 | CN(C)C1CN(c2ccc(-n3cc(C(=O)O)c(=O)c4cc(F)c(N5CCC[C@@H]5COc5ncccc5Cl)cc43)cn2)C1 [Compound 222, 7-[(2R)-2-[[(3-chloropyridin-2-yl)oxy]methyl]pyrrolidin-1-yl]-1-[6-[3-(dimethyl-amino)azetidin-1-yl]pyridin-3-yl]-6-fluoro-4-oxoquinoline-3-carboxylic acid] | – | ≤ 1 | –
6 | Cc1cccnc1OC[C@H]1CCCN1c1cc2c(cc1F)c(=O)c(C(=O)O)cn2-c1ccc(CO)cc1F [Compound 123, (R)-6-fluoro-1-(2-fluoro-4-(hydroxy-methyl)phenyl)-7-(2-(((3-methylpyridin-2-yl)oxy)methyl)pyrrolidin-1-yl)-4-oxo-1,4-dihydro-quinoline-3-carboxylic acid] | – | ≤ 1 | –
7 | CC(=O)NC1CCC(n2cc(C(=O)O)c(=O)c3cc(F)c(N4CCC[C@@H]4COc4ccccn4)cc32)CC1 (stereo partly drawn) [Example 358, 1-(4-acetamidocyclo-hexyl)-6-fluoro-4-oxo-7-[(2R)-2-[(pyridin-2-yloxy)methyl]pyrrolo-1-yl]-1,4-dihydroquinoline-3-carboxylic acid] | 1 to 10 | – | –

Second part, led by results:

Row | IC50 [1] [µM] | IC50 [2] [µM] | SMILES | other results
8 | ≤ 1 | – | CN(C)C1CN(c2ccc(-n3cc(C(=O)O)c(=O)c4cc(F)c(N5CCC[C@@]5(C)COc5ncccc5Cl)nc43)cn2)C1 [Example 630, (S)-7-(2-(((3-chloropyridin-2-yl)oxy)methyl)-2-methylpyrrolidin-1-yl)-1-(6-(3-(dimethylamino)azetidin-1-yl)pyridin-3-yl)-6-fluoro-4-oxo-1,4-dihydro-1,8-naphthyridine-3-carboxylic acid] | –
9 | ≤ 1 | – | CN(C)C1CN(c2ccc(-n3cc(C(=O)O)c(=O)c4cc(Cl)c(N5CCC[C@@H]5CSc5ncccc5Cl)cc43)cn2)C1 [Example 596, (R)-6-chloro-7-(2-(((3-chloropyridin-2-yl)thio)methyl)pyrrolidin-1-yl)-1-(6-(3-(dimethylamino)azetidin-1-yl)pyridin-3-yl)-4-oxo-1,4-dihydroquinoline-3-carboxylic acid] | –
10 | ≤ 1 | – | Cc1cccnc1OC[C@H]1CCCN1c1cc2c(cc1F)c(=O)c(C(=O)O)cn2-c1ccc2[nH]c(=O)[nH]c2c1 [Example 443, (R)-6-fluoro-7-(2-(((3-methylpyridin-2-yl)oxy)methyl)pyrrolidin-1-yl)-4-oxo-1-(2-oxo-2,3-dihydro-1H-benzo[d]imidazol-5-yl)-1,4-dihydroquinoline-3-carboxylic acid] | –
